“Also recorded” adds a separate entry of the source.

The values below come from patent US9968650B2, “Modified viral structural protein with antiviral activity” (priority 2011, dated 2018).

For one assay, the target named is T1, Cp149 dimer interface (Hepatitis B virus genotype D subtype adw, UniProt P03147).
T1 construct: (Cp149), which is the N-terminal first 149 residues of the core protein
Particulars: cited from earlier work.

In another assay the test system is HIV-1 NL4-3. The conditions noted are these: cited from earlier work.
In a further assay the target is Gag (Human immunodeficiency virus type 1 group M subtype B, UniProt P12493). The conditions noted are these: cited from earlier work.
The target in another assay is HIV-1 CA (Human immunodeficiency virus type 1 group M subtype B, UniProt P12493). The conditions noted are these: cited from earlier work.
Assay [1] has as its system HBV capsid assembly. Put plainly: Extent of core protein assembly without HAP12 by size exclusion chromatography. The format is biochemical, Hepatitis B virus (HBV). The conditions noted are these: 10 μM protein, 50 mM NaCl, 23° C., without HAP12. Here is the method: (§1) The adyw strain of HBV Cp149-pET11c (Genbank accession no. J02202.1) construct was mutated to Cp149-V124W (GTG to TGG) with the QuikChange mutagenesis kit (Stratagene). […] V124W purification was performed as previously described for HBV Cp149-WT purification. Based on the biochemical studies in this paper, in the re-assembly step, using 50 mM NaCl instead of 500 mM NaCl to induce re-assembly yielded more capsid with slightly more aggressive assembly activity. Protein concentration was determined using an extinction coefficient of 70,025 M^−1 cm^−1 per V124W dimer at 280 nm, calculated by ExPASy Proteomics Server based on the protein sequence and assuming one disulfide bond per dimer WT dimer was purified exactly as previously described. The extinction coefficient of WT dimer is 60,900 M^−1 cm^−1 at 280 nm. Before assembly studies, frozen protein stock was dialyzed into 50 mM HEPES, pH 7.5 for at least 2×2 h at 4° C. The standard assembly buffer was 50 mM HEPES, pH 7.5 at 23° C. with varied NaCl concentrations. Protein stock was treated with 1% to 5% β-mercaptoethanol for 20 min before assembly.
(§2) To test for resistance to HAP molecules, 10 μM protein with varied HAP12 concentrations (2.5 to 60 μM) was induced to assemble at 50 mM NaCl. Before adding 10× NaCl, protein was incubated with HAP12 at 23° C. for 20 min. Each reaction was incubated at 23° C. for 24 h to equilibrate. Under these conditions, 24 h was long enough to allow reactions to reach equilibrium. Capsid, abnormal structures and dimer concentrations were determined by SEC as described above.

The target in assay [2] is T2, HBV capsid assembly (Hepatitis B virus genotype D subtype adw, UniProt P03147).
T2 construct: (Cp149), which is the N-terminal first 149 residues of the core protein; made in house; host or cells: E. coli BL21 (DE3) (printed for V124W; WT 'as previously described')
The description is as above. The assay is classed as biochemical. Here is the method:
as §1, §2

The test system of assay [3] is HBV capsid assembly. Put plainly: 90° light scattering assembly kinetics of core protein alone. The assay is classed as biochemical, Hepatitis B virus (HBV). Particulars: 10 μM protein, 50 mM NaCl, first 800 seconds. Here is the method:
Light scattering was monitored at 90° using 400 inn excitation and emission wavelength with a Photon Technology International fluorometer for at least 800 seconds at 23° C. 10 μM protein (WT or V124W) was incubated with or without 20 μM HAP12 for 20 min prior to adding equal volume of 2× NaCl to a final concentration of 50 mM NaCl. Each sample was repeated 3-4 times independently.
90° Light scattering is a well-established method to monitor the virus assembly kinetics because of the significant difference between the size of the capsid and the dimer. HBV core protein assembly is induced by increasing the ionic strength in vitro, which is achieved by adding NaCl to the reaction system. Higher ionic strength leads to assembly faster and further due to the stronger association energy between dimers.

Assay [4] concerns HBV capsid assembly. Put plainly: Size exclusion chromatography of equilibrium capsid assembly and calculation of thermodynamic parameters. The assay is classed as biochemical, Hepatitis B virus (HBV). Particulars: 100 mM NaCl, 23° C.; for pseudo-critical concentration: 72 h equilibration. Here is the method:
as §1
WT and V124W at varied concentrations (WT, 40 to 80 μM; V124W, 2.5 to 30 μM), were induced to assemble at 100 mM NaCl to equilibration for 72 h or longer at 23° C. […] Capsid and dimer concentrations in assembly reactions were determined by size exclusion chromatography (SEC) through a 21 ml Superose 6 column. ΔGcontact and KD,apparent were calculated as previously described. KD,apparent was the average of the equilibrium dimer concentrations which were nearly constant.

For another assay, the system named is HBV replication. In words: Southern blot analysis of encapsidated HBV DNA in transfected Huh7 cells. The conditions noted are these: WT normalized to 100%, SD in parenthesis, * values at limit of detection. The format is cell-based, Hepatitis B virus (HBV). From the text: (§3) All HBV plasmids used in cell culture experiments were derived from subtype ayw (Genbank accession no. V01460). These plasmids express pgRNA under the control of the cytomegalovirus (CMV) immediate early promoter. […] Plasmids C^WT or C^V124W express core protein but not P or envelope proteins and lack a functional encapsidation signal, GFP protein was expressed from a separate plasmid (provided by Bill Sugden, UW-Madison). Details of construction and sequence of any plasmid will be provided upon request.
The human hepatoma cell line Huh7 was used to study HBV replication. Cells were grown in 60 mm plates at 37° C. in 5% CO2, in DMEM/F12 medium supplemented with 5% FBS (Invitrogen, Grand Island, N.Y.). Cells were approximately 75% confluent or greater at time of transfection. DNA transfections were performed using calcium phosphate precipitation. For experiments using WT^P+C+ and V124W^P+C+, 5 μg of total plasmid mass was transfected. Each transfection experiments were repeated three times independently. For V124W titration experiment, 2 μg WT^P+C+ and varied C^V124W (0 to 8 μg) were used. A filler plasmid pCMV-Sport6 was used to keep the total plasmid mass at 10 μg. 0.125 μg of the GFP expression plasmid was used in every transfection. Typically, medium containing the calcium phosphate precipitate was removed after 16 hours, fresh medium added, and the cultures were grown for an additional 96 hours.
Nucleic acid from cytoplasmic capsids was isolated as described previously. Briefly, cells were lysed in a solution containing 50 mM Tris, 1 mM EDTA, 0.2% NP40, pH 8.0. Nuclei were pelleted via centrifugation and supernatant was collected. A fraction of this lysate was used for detection of core protein and GFP. The remainder of the cytoplasmic lysate was treated with 45 units of micrococcal nuclease (Worthington Biochemicals, Lakewood, N.J.) in the presence of 2 mM CaCl2 to digest plasmid DNA and unencapsidated pgRNA, followed by treatment with 0.4% SDS and 0.4 mg/ml Pronase® (Roche, Nutley, N.J.) to digest nucleocapsids and P protein. Encapsidated nucleic acids were extracted with 1:1 phenokchloroform, precipitated with ethanol and NaCl, and re-suspended in 30 μl of a solution of 10 mM Tris, 0.1 mM EDTA, pH 8.0.
An aliquot of viral DNA was electrophoresed through a 1.25% agarose gel. DNA was denatured and neutralized in situ in 0.5 N NaOH/1.5 M NaCl and 1 M Tris/1.5 M NaCl, respectively, followed by passive transfer to Hybond-N (GE® Lifesciences, Piscataway, N.J.) in 10×SSC. Viral DNA was detected on the membrane using an equimolar pool of oligonucleotides that detected (−) DNA. […] Levels of DNA were measured using the software ImageQuant® 5.2 (Molecular Dynamics). DNA levels were normalized to GFP levels as determined previously by western blot. […]

For another assay, the system named is core protein. Put plainly: Western blot analysis of core protein level in transfected Huh7 cells. The assay is classed as cell-based, Hepatitis B virus (HBV). Particulars: normalized to GFP, WT = 100%, SD in parenthesis.
Excerpt: as §3
The human hepatoma cell line Huh7 was used to study HBV replication. Cells were grown in 60 mm plates at 37° C. in 5% CO2, in DMEM/F12 medium supplemented with 5% FBS (Invitrogen, Grand Island, N.Y.). […]
A fraction of cytoplasmic lysate was used to run a 15% SDS-PAGE, followed by transfer of proteins to PVDF-FL (Millipore®, Billerica, Mass.) in methanol transfer buffer (details of SDS-PAGE and transfer solutions provided upon request). […] Core protein was detected using a rabbit α-core antibody (Austral Biologicals®, San Ramon, Calif.) at a dilution of 1:500, and a goat α-rabbit IRDye800CW antibody (Li-Cor®) at a dilution of 1:10,000. GFP was detected using a mouse α-GFP antibody (Santa Cruz® Biotechnology, San Cruz, Calif.) at a dilution of 1:500, and a goat α-mouse IRDye680LT antibody (Li-Cor®) at a dilution of 1:10,000. […] Core levels were normalized to GFP levels for quantitation. […]
(Immunoblotting shows a protein as a band on a membrane.)

T2 sequence (P03147 1-149): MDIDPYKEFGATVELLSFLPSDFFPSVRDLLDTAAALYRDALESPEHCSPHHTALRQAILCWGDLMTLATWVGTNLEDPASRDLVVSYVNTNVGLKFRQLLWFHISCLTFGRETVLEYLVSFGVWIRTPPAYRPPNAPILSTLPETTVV
T1 sequence (P03147 1-149): as above

For `COC(=O)C1=C(C)NC(c2ncc(F)cc2F)=N[C@H]1c1ccc(F)cc1Cl` [BAY41-4109], the “HAP stoichiometry necessary to generate aberrant structures” value on Cp149 dimer interface (pure BAY41-4109) is “greater than one HAP per two dimers”.
For the compound `Cc1[nH]c2ccccc2c1CC(=O)N[C@@H](Cc1ccccc1)C(=O)N(C)c1ccccc1` [PF-3450074], the “antiviral activity against HIV” value in the assay on HIV-1 NL4-3 was “inhibit HIV replication”. Moreover, the Gag association entry at Gag is recorded as “does not inhibit”. Further, the “rate of CA multimerization” value at HIV-1 CA is “significant increase”.
For the compound “WT: wild type HBV core protein; Cp149 is the N-terminal 149-residue assembly domain, used as control”, the “extent of assembly (dimers assembled into capsids)” value in the assay with HBV capsid assembly [1] was “no assembly”. Besides, the “extent of assembly (dimers assembled into capsids)” value in the assay with HBV capsid assembly [1] (listed as wild type Cp149) is “does not assemble at all; also recorded: no assembly”. In addition, the “capsid formation at 150 mM NaCl” value with HBV capsid assembly [2] (10 μM protein, 150 mM NaCl (data not shown)) is “did not observe any capsid formation”. For the same compound, the “concentration needed to see any assembly” value with HBV capsid assembly [2] (under similar conditions (NaCl-induced assembly, FIG. 10)) was determined as 45 µM. Moreover, the “assembly kinetics without HAP12 (in words)” value in the assay on HBV capsid assembly [3] is reported as “did not assemble”. Also, in the assay with HBV capsid assembly [4], the ΔGcontact was -2.74 ± 0.04 kcal/mol and the pseudo-critical concentration entry is reported as “about 43 μM”. Also, in the assay on HBV capsid assembly [4] (listed as wild type Cp149), the pseudo-critical concentration was 43.6 ± 5.1 µM and the ΔGcontact was -2.74 ± 0.04 kcal/mol. Further, on HBV capsid assembly [4] (read-out: KD, apparent), the Kd is 43.3 ± 4.97 µM. Further, in the assay with HBV replication, the dlDNA is listed as 100% (27%), the ssDNA is 100% (19%) and the “total DNA” value is 100% (19%). The rcDNA in the assay on HBV replication (three independent transfections) was 100% (46%). In the assay on core protein, the core protein is 100% (39%). Further, the “association energy at the dimer interface” value in the assay with Cp149 dimer interface (150 mM NaCl 37° C., without HAP) is -3.87 kcal/mol.
